Data as given in patent US6949648B2, “Condensed pyrazole derivatives, process for producing the same and use thereof” (Takeda Pharmaceutical Company Limited, priority 2000, dated 2005).
Where two headings read alike, the source gives them in different places. Marks after values point to notes of the source that are not given here.

Legend:
[1] = biological target: T1, human COX-1 (Homo sapiens, UniProt P23219); assay: Determination of COX-1 inhibitory activity (microsome fraction, chemiluminescence); type: biochemical; conditions: microsome fraction 40 μg, arachidonic acid, 37° C. 25 minutes preincubation; read-out: Repression rate IC50 (μM) COX-1
T1 construct: made in house; host or cells: Sf-21 insect cells (recombinant baculovirus BAC-COX1, pFASTBAC1); microsome fraction
Procedure: A 1.8 kb DNA fragment containing human COX-1 cDNA (FASEB J., vol. 5 (9), p. 2304-2312 (1991)) prepared by the PCR method was inserted into plasmid pFASTBAC1 (CIBCOBRL) to obtain a plasmid pFBCOX1.
Using the plasmid pFBCOX1 and BAC-TO-BAC Baculovirus Expression System (GIBCOBRL), a virus stock BAC-COX1 of the recombinant baculovirus was prepared.
Sf-21 cells were inoculated in 125 mL of Sf-900 II SFM medium (GIBCOBRL) at a concentration of 1×10^6 cells/mL, and the medium was incubated at 27° C. for 24 hours. 0.75 mL of the virus stock BAC-COX1 of the recombinant baculovirus was added thereto, and the mixture was incubated further for 72 hours. The cells were separated from the medium by centrifugation (3000 rpm, 10 min), and washed with PBS twice. The cells were suspended in 10 mL of a Lysis buffer (0.1M Tris-HCl (pH 7.4), 5 mM EDTA), and were treated with a homogenizer (POLYTRON) three times at 20000 rpm for 20 seconds so that the cells were crushed. The supernatant obtained after centrifugation (2000 rpm, 10 minutes) was further centrifuged (40000 rpm, 45 minutes) to give a precipitate, which was resuspended in a Lysis buffer (0.1M Tris-HCl (pH 7.4), 5 mM EDTA), and the suspension was stored at −80° C.
(§1) Determination of COX-1 and COX-2 Inhibitory Activities
(§2) To a mixture of 20 μL of a reaction buffer previously concentrated 10 times (1M Tris-HCl (pH8.0), 50 mM EDTA, 1.0% Tween 20, 50 mM luminol, 100 μM hematin), 20 μL of the microsome fractions (COX-1: 40 μg, COX-2: 20 μg), and 55 μL of distilled water, a sample compound dissolved in DMF (5 μL) was added, and the mixture was left at 37° C. for 25 minutes. The reaction was started by the addition of 20 μM arachidonic acid (100 μL), and chemiluminescence amount during the 10-second period after the addition of arachidonic acid was determined by the use of Lumistar (BMG Lab technologies, GmbH). The inhibition rate was calculated, regarding that the enzyme activity when DMF ([…]) was added was 100%, and the enzyme activity when 4 mM flurbiprofen (5 μL) was added was 0%.

[2] = biological target: T2, human COX-2 (Homo sapiens, UniProt P35354); assay: Determination of COX-2 inhibitory activity (microsome fraction, chemiluminescence); type: biochemical; conditions: microsome fraction 20 μg, arachidonic acid, 37° C. 25 minutes preincubation; read-out: Repression rate IC50 (μM) COX-2
T2 construct: made in house; host or cells: Sf-21 insect cells (recombinant baculovirus BAC-COX2, pFASTBAC1); microsome fraction
T2 sequence (P35354 18-604): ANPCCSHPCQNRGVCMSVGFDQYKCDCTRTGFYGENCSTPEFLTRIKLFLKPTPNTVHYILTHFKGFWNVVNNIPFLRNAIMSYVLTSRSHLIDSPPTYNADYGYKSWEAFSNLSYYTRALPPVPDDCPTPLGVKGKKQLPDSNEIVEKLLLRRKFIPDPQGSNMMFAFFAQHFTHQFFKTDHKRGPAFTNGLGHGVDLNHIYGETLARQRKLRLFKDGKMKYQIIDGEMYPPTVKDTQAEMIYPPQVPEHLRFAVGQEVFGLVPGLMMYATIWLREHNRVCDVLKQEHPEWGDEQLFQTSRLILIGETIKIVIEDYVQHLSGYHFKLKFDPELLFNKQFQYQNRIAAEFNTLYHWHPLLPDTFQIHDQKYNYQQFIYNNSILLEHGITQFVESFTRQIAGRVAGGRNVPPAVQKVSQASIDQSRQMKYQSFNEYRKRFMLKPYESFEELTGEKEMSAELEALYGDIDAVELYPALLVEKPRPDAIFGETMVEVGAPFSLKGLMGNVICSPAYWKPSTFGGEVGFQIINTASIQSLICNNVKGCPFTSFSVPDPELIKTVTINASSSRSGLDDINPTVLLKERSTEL
Procedure: A 1.8 kb DNA fragment containing human COX-2 cDNA (Proc. Natl. Acad. Sci. U.S.A., vol. 89 (16), p. 7384-7388 (1992)) prepared by the PCR method was inserted into plasmid pFASTBAC1 (CIBCOBRAL) to obtain a plasmid pFBCOX2.
Using the plasmid pFBCOX2 and BAC-TO-BAC Baculovirus Expression System (GIBCOBRAL), a virus stock BAC-COX2 of the recombinant baculovirus was prepared.
Sf-21 cells were inoculated in 125 mL of LSf-900 II SFM medium (GIBCOBRAL) at a concentration of 1×10^6 cells/mL, and the medium was incubated at 27° C. for 24 hours. 0.75 mL of the virus stock BAC-COX2 of the recombinant baculovirus was added thereto, and was incubated further for 72 hours. The cells were separated from the medium by centrifugation (3000 rpm, 10 min), and washed with PBS twice. The cells were suspended in 10 mL of a Lysis buffer (0.1M Tris-HCl (pH 7.4), 5 mM EDTA), and were treated with a homogenizer (POLYTRON), three times at 20000 rpm for 20 seconds so that the cells were crushed. The supernatant thus obtained after centrifugation (2000 rpm, 10 minutes) was further centrifuged (40000 rpm, 45 minutes) to obtain a precipitate, which was resuspended in a Lysis buffer (0.1M Tris-HCl (pH 7.4), 5 mM EDTA), and the suspension was stored at −80° C.
as §1, §2

[3] = system: gastric mucosa; assay: Disorder of gastric mucosa; type: in vivo, SD rats; conditions: stomach, 1000 mg/kg orally, fasted rats, 6 hours after dosing
Procedure: Disorder of Gastric Mucosa
Male SD origin male-rats (7 weeks old, CLEA Japan) were used. After 24 hours from the termination of food supply, samples were orally administered (5 mL/kg, b.w.). After 5.5 hours, Evan's Blue (0.5% Evan's Blue/saline) was injected intravenously (1 mL/rat) under no anesthesia. After 30 minutes from the shot, the stomach (with esophagus and duodenum of 1.5 to 2 cm length) was removed by celiotomy, and subsequently, the esophagus terminal was closed with a clip, and a 8 mL of 1% formalin solution was injected into the stomach through the duodenum, which was also closed with a clip after the injection. The stomach was left contacting with the 1% formalin solution for more than 10 minutes, and subsequently cut open from duodenum along the greater curvature of stomach. The stomach was washed and spread on a filter paper, and the length of each of the spots dyed by Evan's Blue (hemorrhagic portion: mucosal ablation to ulcer) was measured under a stereomicroscope, and the total length (mm) was calculated by a counter and recorded.

[4] = system: mucosa of small intestine; assay: Disorder of mucosa of small intestine; type: in vivo, SD rats; conditions: 300 mg/kg orally, freely fed rats, 6 hours after dosing
Procedure: Disorder of Mucosa of Small Intestine Male SD origin male-rats (7 weeks old, CLEA Japan) were used. To the rats freely fed, samples were administered orally (5 mL/kg, b.w.). After 5.5 hours from the administration, Evan's Blue (0.5% Evan's Blue/saline) was injected (1 mL/rat) intravenously under no anesthesia. After 30 minutes from the shot, the intestine was removed by celiotomy and the area thereof facing mesentery was cut open. After removal of intestinal content, the spots in the intestine dyed by Evan's Blue were measured under a stereomicroscope, and the total length (mm) of the spots was determined by a counter and recorded.

[5] = system: carrageenin edema of right hind limb plantar; assay: Anti-inflammatory activity, carrageenin edema method; type: in vivo, SD-rats; conditions: po, 10 mg/kg orally
Procedure: Anti-Inflammatory Activity
Male SD-rats (6 weeks old, CLEA Japan) were used (1 group, n=6). The Carrageenin edema method was performed according to the method of Winter et. al., (Proc. Soc. Exp. Biol. Med., vol. 111, p. 544-547, 1962). After the volume of right hind limb plantar of the rat was determined, a sample was orally administered (1.0 mL, b.w.), and immediately water was orally administered in an amount of 5 mL/rat. Meanwhile, only the solvent of the sample was orally administered to rats in control. After 1 hour, a solution of 1% carrageenin in saline (0.05 mL) was injected into the right hind limb plantar subcutaneously to induce edema. After 2 and 3 hours later from the injection, volumes of the right hind limb plantar were determined. The repression rate (%) of the sample was calculated by comparing the difference of the volumes of the plantar before the carrageenin shot and 2 and 3 hours after the shot between the sample groups and the control groups.

[6] = system: acetic acid induced rising and stretching; assay: Analgesic activity, acetic acid rising method; type: in vivo, ICR-mice; conditions: po, 20 min; 10 mg/kg orally, 30 minutes before 0.6% acetic acid i.p.; number of rising and stretching in 20 minutes; read-out: Repression rate (%) Dosage 10 mg/kg
Procedure: Analgesic Activity Acetic Acid Rising Method Male ICR-mice (5 weeks old, CLEA Japan) were used (1 group, n=10), and a sample was orally administered (0.2 mL/10 g, b.w.). After 30 minutes, 0.6% acetic acid solution was injected to mice intraperitoneally (0.1 mL/10 g, b.w.), and the mice were immediately transferred into an observation cage made of a transparent acrylic resin. The number of rising and stretching during the following period of 20 minutes was counted. The repression rate (%) was calculated by comparing the average numbers between the sample groups and the control groups.

[7] = system: yeast-induced pyrexia; assay: Antipyretic activity in yeast-induced pyrexia; type: in vivo, SD rats; conditions: 10 mg/kg orally; maximum difference in body temperature vs control over 6 hours
Procedure: Antipyretic Activity in Yeast-Induced Pyrexia Antipyretic activity was determined using male SD origin male-rats (7 weeks old, CLEA Japan, 1 group: n=6), according to the method of winter et. al. (J. Pharmacol. Exp. Ther., vol. 138, p. 405, 1963). Before 16 hours from measurement of body temperature, a suspension of 15% yeast in saline was injected subcutaneously (10 mL/kg, b.w.) into the rats to induce fever, and simultaneously supply of food was terminated while water was made available all the time. Each of the rats was raised separately. After 16 hours from the yeast shot, a thermistor terminal was inserted at an about 4 cm depth into rectum every hour, and the body temperatures after 30 seconds were recorded. After 18 hours, rats developing fevers consistently were selected, and a sample was orally administered to the rats (5 mL/kg, b.w.), while to the control, only the solvent was administered. After the administration, body temperatures were measured every hour for a period of 6 hours, and the maximum difference in body temperature between the rats in the sample group and in the control group were determined as Δ (° C.).

[8] = system: adjuvant arthritis; assay: Anti-adjuvant-arthritic activity; type: in vivo, SD rats; conditions: 10 mg/kg orally once a day for 14 days; volume of left hind limb (not injected); day of reading not given
Procedure: Anti-Adjuvant-Arthritic Activity
Male SD origin male-rats (6 weeks old, CLEA Japan, 1 group: n=7) were used. The adjuvant arthritis method was conducted according to the method of Newbould B. B. et. al., (Brit. J. Pharmacol. Chemother., vol. 21, p. 127, 1963). Complete Freund's adjuvant (a suspension of killed tubercule bacillus in liquid paraffin at a concentration of 0.5%, 0.05 mL) was injected into the right hind limb footpad intracutaneouly to induce multiple arthritis. Samples were administered orally (10 mg/kg, b.w.), once a day for 14 days from the day before the injection day 0 to day 13. Volume of the left hind limb (not injected) was determined by the foot-volume measurement apparatus manufactured by Ugo Basile, on the day just before the adjuvant shot (Day 0), Day 10 and Day 14, and repression rate (%) was calculated comparing the values between the sample group and the control group.

T1 sequence (P23219 24-599): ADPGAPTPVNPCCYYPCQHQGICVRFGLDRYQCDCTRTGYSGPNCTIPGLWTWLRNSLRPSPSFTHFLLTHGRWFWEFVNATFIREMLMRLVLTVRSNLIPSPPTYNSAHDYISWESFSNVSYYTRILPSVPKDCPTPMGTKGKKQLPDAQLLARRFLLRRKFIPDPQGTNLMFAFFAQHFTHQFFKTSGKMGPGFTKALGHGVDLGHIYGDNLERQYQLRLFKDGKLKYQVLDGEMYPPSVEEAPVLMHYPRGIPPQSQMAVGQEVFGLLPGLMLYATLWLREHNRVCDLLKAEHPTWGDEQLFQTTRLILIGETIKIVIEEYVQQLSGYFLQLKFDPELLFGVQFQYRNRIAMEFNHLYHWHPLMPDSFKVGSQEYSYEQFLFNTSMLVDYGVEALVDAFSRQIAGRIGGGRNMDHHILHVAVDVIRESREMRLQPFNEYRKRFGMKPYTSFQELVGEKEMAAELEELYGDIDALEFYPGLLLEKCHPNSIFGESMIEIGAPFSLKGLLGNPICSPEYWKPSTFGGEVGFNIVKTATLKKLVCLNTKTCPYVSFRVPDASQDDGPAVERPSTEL

Row | Compound | IC50 [1] [µM] | IC50 [2] [µM] | Total length of dyed spots (mm) [3] | Total length of dyed spots (mm) [4] | inhibition in vivo at 10 mg/kg ([5]; 2 hr after carrageenin injection, read-out: Repression rate (%) Dosage 10 mg/kg 2 hr later) [%] | inhibition in vivo at 10 mg/kg ([5]; 3 hr after carrageenin injection, read-out: Repression rate (%) Dosage 10 mg/kg 3 hr later) [%] | inhibition in vivo at 10 mg/kg [6] [%] | Δ (° C.) Dosage 10 mg/kg [7] | Repression rate (%) Dosage 10 mg/kg [8] | melting point [°C]
1 | Cc1nn(-c2ccccn2)c2[nH]c3cc(F)c(F)cc3c(=O)c12.O [Example 2-92, 6,7-Difluoro-3-methyl-1-(2-pyridinyl)-1,9-dihydro-4H-pyrazolo[3,4-b]quinolin-4-one monohydrate] | 0.677 | 0.465 | 0 (1000 mg/kg) mm | 0 (300 mg/kg) mm | – | – | – | – | – | –
2 | Cc1nn(-c2ccccn2)c2[nH]c3cc(F)c(F)cc3c(=O)c12 [Example 2-91, 6,7-Difluoro-3-methyl-1-(2-pyridinyl)-1,9-dihydro-4H-pyrazolo[3,4-b]quinolin-4-one] | – | – | 0 (1000 mg/kg) mm | – | 51 | 42 | 65 | 1.5** ° C. | 76** % | 274 to 277
